Here are results for 2 molecules from ChEMBL document CHEMBL5634117 (Eur J Med Chem, 2023).

For data set [1], the system named is K562. Put plainly: Induction of apoptosis in human K562 cells assessed as early apoptotic cells at 1.28 uM incubated for 24 hrs by annexinV and propidium iodide staining based flow cytometry analysis (reference value: 1.17%). The class given is functional.
The test system of data set [2] is K562. Put plainly: Induction of cell cycle arrest in human K562 cells assessed as accumulation of cells at S phase at 1.28 uM measured after 24 hrs by PI staining based flow cytometry analysis (reference value: 24.75%). The class given is functional.
Data set [3] has as its system K562. Briefly: Induction of cell cycle arrest in human K562 cells assessed as accumulation of cells at S phase at 0.64 uM measured after 24 hrs by PI staining based flow cytometry analysis (reference value: 24.75%). In kind it is functional.
Data set [4] relates to K562. Briefly: Induction of cell cycle arrest in human K562 cells assessed as accumulation of cells at G2/M phase at 0.64 uM measured after 24 hrs by PI staining based flow cytometry analysis (reference value: 25.62%). The class given is functional.
For data set [5], the system named is K562. Briefly: Induction of apoptosis in human K562 cells assessed as late apoptotic cells at 0.64 uM incubated for 24 hrs by annexinV and propidium iodide staining based flow cytometry analysis (reference value: 0.82%). In kind it is functional.
Data set [6] concerns K562. Briefly: Induction of apoptosis in human K562 cells assessed as late apoptotic cells at 1.28 uM incubated for 24 hrs by annexinV and propidium iodide staining based flow cytometry analysis (reference value: 0.82%). In kind it is functional.
The subject of data set [7] is K562. Briefly: Induction of cell cycle arrest in human K562 cells assessed as accumulation of cells at G0/G1 phase at 2.56 uM measured after 24 hrs by PI staining based flow cytometry analysis (reference value: 46.72%). In kind it is functional.
Data set [8] concerns K562. Briefly: Induction of cell cycle arrest in human K562 cells assessed as accumulation of cells at G2/M phase at 2.56 uM measured after 24 hrs by PI staining based flow cytometry analysis (reference value: 25.62%). In kind it is functional.
Data set [9] relates to K562. Briefly: Induction of autophagy in human K562 cells assessed as increase in beclin-1 level at 2.56 uM measured after 24 hrs by Western blotting analysis. The class given is functional, cell-based.
For data set [10], the system named is K562. Put plainly: Induction of apoptosis in human K562 cells assessed as early apoptotic cells at 0.64 uM incubated for 24 hrs by annexinV and propidium iodide staining based flow cytometry analysis (reference value: 1.17%). In kind it is functional.
For data set [11], the system named is K562. Briefly: Induction of apoptosis in human K562 cells assessed as late apoptotic cells at 2.56 uM incubated for 24 hrs by annexinV and propidium iodide staining based flow cytometry analysis (reference value: 0.82%). In kind it is functional.
Data set [12] can be described thus: Cytotoxicity against African green monkey Vero cells assessed as decrease in number of viable cells at 100 uM measured after 48 hrs by SRB assay relative to control. In kind it is toxicity, cell-based. The note with it: chlorocebus sabaeus.
Data set [13] relates to K562. Briefly: Induction of cell cycle arrest in human K562 cells assessed as accumulation of cells at S phase at 2.56 uM measured after 24 hrs by PI staining based flow cytometry analysis (reference value: 24.75%). The class given is functional.
For data set [14], the system named is K562. Briefly: Induction of apoptosis in human K562 cells assessed as early apoptotic cells at 2.56 uM incubated for 24 hrs by annexinV and propidium iodide staining based flow cytometry analysis (reference value: 1.17%). In kind it is functional.
Data set [15] is described as follows: Cytotoxicity against African green monkey Vero cells assessed as decrease in population of viable cells at 0 to 10 uM measured after 48 hrs by SRB assay relative to control. The note with it: chlorocebus sabaeus, dose 0-10 µM. The class given is toxicity, cell-based.
Data set [16] relates to K562. Put plainly: Induction of apoptosis in human K562 cells assessed as early apoptotic cells at 1.25 uM incubated for 24 hrs by annexinV and propidium iodide staining based flow cytometry analysis (reference value: 0.42%). In kind it is functional.
Data set [17] concerns K562. Briefly: Induction of apoptosis in human K562 cells assessed as late apoptotic cells at 1.28 uM incubated for 24 hrs by annexinV and propidium iodide staining based flow cytometry analysis (reference value: 1.34%). The class given is functional.
In data set [18] the test system is K562. Put plainly: Induction of cell cycle arrest in human K562 cells assessed as accumulation of cells at G2/M phase at 2.56 uM measured after 24 hrs by PI staining based flow cytometry analysis (reference value: 29.09%). The class given is functional.
Data set [19] has as its system K562. Briefly: Induction of cell cycle arrest in human K562 cells assessed as accumulation of cells at G0/G1 phase at 1.25 uM measured after 24 hrs by PI staining based flow cytometry analysis (reference value: 46.67%). In kind it is functional.
For data set [20], the system named is K562. Briefly: Induction of cell cycle arrest in human K562 cells assessed as accumulation of cells at SubG1 phase at 1.25 uM measured after 24 hrs by PI staining based flow cytometry analysis (reference value: 3.43%). The class given is functional.
Data set [21] deals with K562. Put plainly: Induction of cell cycle arrest in human K562 cells assessed as accumulation of cells at G2/M phase at 1.28 uM measured after 24 hrs by PI staining based flow cytometry analysis (reference value: 29.092%). The class given is functional.
Data set [22] deals with K562. Briefly: Induction of cell cycle arrest in human K562 cells assessed as accumulation of cells at G0/G1 phase at 1.28 uM measured after 24 hrs by PI staining based flow cytometry analysis (reference value: 46.71%). In kind it is functional.
Data set [23] concerns K562. Briefly: Induction of cell cycle arrest in human K562 cells assessed as accumulation of cells at G0/G1 phase at 5 uM measured after 24 hrs by PI staining based flow cytometry analysis (reference value: 46.67%). The class given is functional.
Data set [24] relates to K562. Put plainly: Induction of cell cycle arrest in human K562 cells assessed as accumulation of cells at S phase at 2.5 uM measured after 24 hrs by PI staining based flow cytometry analysis (reference value: 20.42%). The class given is functional.
In data set [25] the test system is K562. Briefly: Induction of cell cycle arrest in human K562 cells assessed as accumulation of cells at S phase at 1.28 uM measured after 24 hrs by PI staining based flow cytometry analysis (reference value: 21.74%). The class given is functional.
Data set [26] has as its system K562. Put plainly: Induction of cell cycle arrest in human K562 cells assessed as accumulation of cells at G2/M phase at 0.64 uM measured after 24 hrs by PI staining based flow cytometry analysis (reference value: 29.09%). In kind it is functional.
Data set [27] has as its system K562. Put plainly: Induction of apoptosis in human K562 cells assessed as late apoptotic cells at 1.25 uM incubated for 24 hrs by annexinV and propidium iodide staining based flow cytometry analysis (reference value: 1.34%). In kind it is functional.
For data set [28], the system named is K562. Briefly: Induction of cell cycle arrest in human K562 cells assessed as accumulation of cells at SubG1 phase at 1.28 uM measured after 24 hrs by PI staining based flow cytometry analysis (reference value: 2.48%). In kind it is functional.
Data set [29] has as its system K562. Briefly: Induction of cell cycle arrest in human K562 cells assessed as accumulation of cells at G0/G1 phase at 2.5 uM measured after 24 hrs by PI staining based flow cytometry analysis (reference value: 46.67%). The class given is functional.
In data set [30] the test system is K562. Briefly: Induction of cell cycle arrest in human K562 cells assessed as accumulation of cells at S phase at 0.64 uM measured after 24 hrs by PI staining based flow cytometry analysis (reference value: 21.74%). In kind it is functional.
For data set [31], the system named is K562. Briefly: Induction of apoptosis in human K562 cells assessed as early apoptotic cells at 0.64 uM incubated for 24 hrs by annexinV and propidium iodide staining based flow cytometry analysis (reference value: 0.42%). In kind it is functional.
Data set [32] concerns K562. Briefly: Induction of cell cycle arrest in human K562 cells assessed as accumulation of cells at SubG1 phase at 5 uM measured after 24 hrs by PI staining based flow cytometry analysis (reference value: 3.43%). The class given is functional.

The source made the active and inactive calls. No cut-off for these calls is given here.

With `CC(C)(C)n1cc(-c2ccnc(NCCCNS(=O)(=O)c3ccc(Cl)cc3)c2)c(-c2cccc(O)c2)n1`, the Activity in data set [1] is on record as 1.94%; in [2], 32.68%; in [3], 30.99%; in [4], 51.01%; in data set [5] it was 0.48%; in [6], 0.56%. The Activity in data set [7] is 0.17%; in [8], 94.29%; in [10], 1.07%; in data set [11] it was 0.37%; in data set [12], 27%; in data set [13], 4.89%. Further, the Activity in data set [14] amounted to 2.14%; in data set [15], 68%. Further, the outcome in data set [9] was inactive.

`O=C1c2ccccc2-c2n[nH]c3cccc1c23`: the Activity in [16] is 0.72%; in data set [17], 1.25%; in [18], 37.88%; in data set [19], 34.01%; in data set [20], 4.71%; in data set [21] it was 47.55%. Besides, the Activity came to 28.15% in [22]; 28.76% in data set [23]; 19.27% in [24]; 16.61% in [25]; 48.84% in [26]; 1.47% in [27]. Besides, the Activity came to 7.26% in data set [28]; 30.88% in data set [29]; 18.56% in data set [30]; 1.59% in data set [31]; 4.01% in data set [32].
